Reference: ChEMBL document CHEMBL1145087 (J Med Chem, 2003)

Legend:
Glucocorticoid receptor [1] = biological target: T1, Glucocorticoid receptor (Homo sapiens, UniProt P04150); test: Inhibition of Dexamethasone binding to human glucocorticoid receptor expressed in baculovirus […] cells
T1 sequence (P04150 whole entry): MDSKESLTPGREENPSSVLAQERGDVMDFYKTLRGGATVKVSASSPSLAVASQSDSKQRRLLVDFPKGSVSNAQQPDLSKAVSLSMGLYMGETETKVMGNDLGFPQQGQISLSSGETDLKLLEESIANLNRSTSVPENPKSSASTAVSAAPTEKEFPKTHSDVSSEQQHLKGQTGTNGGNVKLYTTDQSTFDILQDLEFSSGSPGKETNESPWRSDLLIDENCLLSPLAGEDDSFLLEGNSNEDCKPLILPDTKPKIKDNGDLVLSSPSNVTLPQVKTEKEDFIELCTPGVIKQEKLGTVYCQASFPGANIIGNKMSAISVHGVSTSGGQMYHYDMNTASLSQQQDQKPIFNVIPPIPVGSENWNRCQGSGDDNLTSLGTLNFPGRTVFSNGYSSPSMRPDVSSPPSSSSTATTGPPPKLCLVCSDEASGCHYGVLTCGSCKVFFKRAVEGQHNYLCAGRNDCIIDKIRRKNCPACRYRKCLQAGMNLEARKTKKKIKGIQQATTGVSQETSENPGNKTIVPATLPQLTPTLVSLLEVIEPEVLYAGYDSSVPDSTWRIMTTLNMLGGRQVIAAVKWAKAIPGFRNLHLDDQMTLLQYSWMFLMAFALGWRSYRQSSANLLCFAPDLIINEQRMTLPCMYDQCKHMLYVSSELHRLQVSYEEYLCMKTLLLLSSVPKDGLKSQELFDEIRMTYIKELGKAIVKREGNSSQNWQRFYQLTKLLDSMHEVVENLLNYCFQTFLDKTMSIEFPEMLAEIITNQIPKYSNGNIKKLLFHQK

[2] = biological target: T2, Mineralocorticoid receptor (Homo sapiens, UniProt P08235); test: Inhibitory activity against human Mineralocorticoid receptor
T2 sequence (P08235 whole entry): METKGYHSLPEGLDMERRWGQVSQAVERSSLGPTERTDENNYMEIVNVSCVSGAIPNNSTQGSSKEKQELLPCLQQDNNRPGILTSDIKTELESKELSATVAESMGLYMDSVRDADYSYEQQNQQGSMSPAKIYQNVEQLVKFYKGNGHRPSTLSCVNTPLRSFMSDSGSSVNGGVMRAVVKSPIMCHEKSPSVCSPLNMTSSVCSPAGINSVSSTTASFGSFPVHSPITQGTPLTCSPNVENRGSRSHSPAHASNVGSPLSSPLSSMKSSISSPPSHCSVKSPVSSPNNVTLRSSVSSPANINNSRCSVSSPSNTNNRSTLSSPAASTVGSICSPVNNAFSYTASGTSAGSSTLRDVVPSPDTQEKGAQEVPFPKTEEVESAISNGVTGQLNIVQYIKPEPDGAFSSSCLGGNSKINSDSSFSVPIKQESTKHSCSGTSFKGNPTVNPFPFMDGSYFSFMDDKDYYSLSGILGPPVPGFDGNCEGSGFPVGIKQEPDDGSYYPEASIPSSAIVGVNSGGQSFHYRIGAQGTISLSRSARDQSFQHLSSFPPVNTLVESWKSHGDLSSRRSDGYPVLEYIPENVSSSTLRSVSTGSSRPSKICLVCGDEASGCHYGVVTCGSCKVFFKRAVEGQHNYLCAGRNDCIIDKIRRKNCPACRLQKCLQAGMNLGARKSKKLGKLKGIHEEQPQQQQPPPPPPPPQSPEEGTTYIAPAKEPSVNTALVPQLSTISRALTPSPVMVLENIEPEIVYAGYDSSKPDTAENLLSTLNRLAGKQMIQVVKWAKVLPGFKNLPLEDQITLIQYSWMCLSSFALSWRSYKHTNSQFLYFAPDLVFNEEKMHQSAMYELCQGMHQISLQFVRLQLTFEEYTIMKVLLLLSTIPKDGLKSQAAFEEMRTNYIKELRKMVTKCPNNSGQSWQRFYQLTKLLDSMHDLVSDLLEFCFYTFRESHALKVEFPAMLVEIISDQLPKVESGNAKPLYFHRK

Progesterone receptor [3] = biological target: T3, Progesterone receptor (Homo sapiens, UniProt P06401); test: Agonistic activity against human progesterone receptor in T47D breast cancer cells; format: functional, cell-based
T3 sequence (P06401 whole entry): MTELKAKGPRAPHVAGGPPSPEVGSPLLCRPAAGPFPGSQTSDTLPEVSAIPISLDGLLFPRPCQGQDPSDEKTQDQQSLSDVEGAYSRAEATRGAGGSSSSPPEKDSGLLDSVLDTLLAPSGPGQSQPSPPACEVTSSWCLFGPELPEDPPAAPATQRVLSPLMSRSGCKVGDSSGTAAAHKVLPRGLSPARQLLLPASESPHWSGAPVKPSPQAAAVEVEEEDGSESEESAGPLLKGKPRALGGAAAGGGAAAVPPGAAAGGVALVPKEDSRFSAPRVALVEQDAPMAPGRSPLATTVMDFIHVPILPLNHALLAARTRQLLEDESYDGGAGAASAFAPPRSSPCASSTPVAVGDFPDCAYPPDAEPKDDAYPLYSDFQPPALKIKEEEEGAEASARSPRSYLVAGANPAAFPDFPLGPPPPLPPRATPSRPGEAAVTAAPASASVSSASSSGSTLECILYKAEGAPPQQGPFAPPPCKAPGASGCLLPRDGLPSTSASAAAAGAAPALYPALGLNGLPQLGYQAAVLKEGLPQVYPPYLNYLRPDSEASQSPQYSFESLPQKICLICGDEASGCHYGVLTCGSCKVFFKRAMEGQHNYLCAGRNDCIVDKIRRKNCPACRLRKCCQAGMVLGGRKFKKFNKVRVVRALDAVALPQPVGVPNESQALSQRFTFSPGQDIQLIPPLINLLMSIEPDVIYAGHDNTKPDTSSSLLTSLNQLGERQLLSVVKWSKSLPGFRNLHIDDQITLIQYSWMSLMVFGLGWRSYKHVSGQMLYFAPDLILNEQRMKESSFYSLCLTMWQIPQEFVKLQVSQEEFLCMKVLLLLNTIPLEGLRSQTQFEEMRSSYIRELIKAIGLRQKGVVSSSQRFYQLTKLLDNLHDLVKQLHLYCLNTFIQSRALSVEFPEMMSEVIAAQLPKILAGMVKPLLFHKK

[4] = biological target: T4, Progesterone receptor (Homo sapiens) (UniProt P06401); test: Percent agonistic effect towards human progesterone receptor in CV-1 cells; format: functional, cell-based
T4 sequence (whole entry): T3 sequence (P06401 whole entry)

Progesterone receptor [5] = biological target: T3, Progesterone receptor; test: Binding affinity towards human progesterone receptor A isoform using progesterone as radioligand
Homo sapiens [6] = organism: Homo sapiens; test: Relative potency for human estrogen and progesterone receptors
Homo sapiens [7] = organism: Homo sapiens; test: Relative potency for human glucocorticoid and progesterone receptors
Homo sapiens [8] = organism: Homo sapiens; test: Relative potency for human mineralocorticoid and progesterone receptors
Glucocorticoid receptor [9] = biological target: T1, Glucocorticoid receptor
Description: Inhibition of human glucocorticoid receptor at 10e-12 to 10e-5 M

Estrogen receptor = Estrogen receptor (Homo sapiens, UniProt Q92731+P03372)
Description: Inhibition of binding to human estrogen receptor

With `CC1=CC(C)(C)Nc2ccc3c(c21)/C(=C/c1ccccc1C)Oc1c(F)cccc1-3` the Ki (Glucocorticoid receptor [1]) was 232 nM, the IC50 [2] was 1850 nM and the EC50 (Progesterone receptor [3]) was 9 nM. It also gave an Efficacy [4] of 163%, a Ki (Progesterone receptor [5]) of 1.5 nM and a Ratio (Homo sapiens [6]) of over 1000. It also gave a Ratio (Homo sapiens [7]) of 212, a Ratio (Homo sapiens [8]) of over 1000 and an IC50 (Glucocorticoid receptor [9]) of 297 nM. For the same compound, the IC50 (Estrogen receptor) was 2443 nM.
`CC1=CC(C)(C)Nc2ccc3c(c21)/C(=C/c1ccsc1)Oc1ccc(F)cc1-3` showed a Ki (Glucocorticoid receptor [1]) of 84 nM, an IC50 [2] of 1900 nM and an EC50 (Progesterone receptor [3]) of 5.5 nM. The Efficacy [4] was 174%, the Ki (Progesterone receptor [5]) was 1.3 nM and the Ratio (Homo sapiens [6]) was over 1000. The Ratio (Homo sapiens [7]) was 141, the Ratio (Homo sapiens [8]) was over 1000 and the IC50 (Glucocorticoid receptor [9]) was 100 nM. For the same compound, the IC50 (Estrogen receptor) was 3488 nM.
Compound `CCc1ccccc1/C=C1\Oc2ccc(F)cc2-c2ccc3c(c21)C(C)=CC(C)(C)N3` has a Ki (Glucocorticoid receptor [1]) of 270 nM, an IC50 [2] of 334 nM and an EC50 (Progesterone receptor [3]) of 18 nM. The Efficacy [4] was 161%, the Ki (Progesterone receptor [5]) was 2.3 nM and the Ratio (Homo sapiens [6]) was over 1000. For the same compound, the Ratio (Homo sapiens [7]) was 39, the Ratio (Homo sapiens [8]) was 167 and the IC50 (Glucocorticoid receptor [9]) was 77 nM.
With `CC1=CC(C)(C)Nc2ccc3c(c21)/C(=C/c1ccncc1C)Oc1ccc(F)cc1-3` the Ki (Glucocorticoid receptor [1]) was 232 nM, the IC50 [2] was 363 nM and the EC50 (Progesterone receptor [3]) was 4.6 nM. For the same compound, the Efficacy [4] was 138%, the Ki (Progesterone receptor [5]) was 1.4 nM and the Ratio (Homo sapiens [6]) was 255. The Ratio (Homo sapiens [7]) was 54, the Ratio (Homo sapiens [8]) was 511 and the IC50 (Glucocorticoid receptor [9]) was 245 nM. The IC50 (Estrogen receptor) was 1149 nM.
Work on `CC1=CC(C)(C)Nc2ccc3c(c21)/C(=C/c1ccccc1)Oc1c(F)cccc1-3` yielded a Ki (Glucocorticoid receptor [1]) of 321 nM, an EC50 (Progesterone receptor [3]) of 11 nM and an Efficacy [4] of 171%. It also gave a Ki (Progesterone receptor [5]) of 0.61 nM, a Ratio (Homo sapiens [6]) of over 1000 and a Ratio (Homo sapiens [7]) of 119. The Ratio (Homo sapiens [8]) was over 1000 and the IC50 (Glucocorticoid receptor [9]) was 250 nM.
